# Tests used:
# SF-268 = test: NCI60 five-dose screen; type: cell-based; details: Homo sapiens, SF-268, CNS cancer; for CC50: read-out: LC50 (the source's name)
# OVCAR-3 = test: NCI60 five-dose screen; type: cell-based; details: Homo sapiens, OVCAR-3, ovarian cancer; for CC50: read-out: LC50 (the source's name)
# 786-0 = test: NCI60 five-dose screen; type: cell-based; details: Homo sapiens, 786-0, renal cancer; for CC50: read-out: LC50 (the source's name)
# IGROV1 = test: NCI60 five-dose screen; type: cell-based; details: Homo sapiens, IGROV-1; IGROV1, ovarian cancer
# LOX IMVI = test: NCI60 five-dose screen; type: cell-based; details: Homo sapiens, melanoma; for CC50: read-out: LC50 (the source's name)
# ACHN = test: NCI60 five-dose screen; type: cell-based; details: Homo sapiens, renal cancer; for CC50: read-out: LC50 (the source's name)
# UACC-62 = test: NCI60 five-dose screen; type: cell-based; details: Homo sapiens, UACC-62, melanoma; for CC50: read-out: LC50 (the source's name)
# COLO 205 = test: NCI60 five-dose screen; type: cell-based, human; details: Homo sapiens; for CC50: COLO 205, COLO 205, colon cancer, read-out: LC50 (the source's name); for GI50: COLO 205, colon cancer
# RPMI-8226 = test: NCI60 five-dose screen; type: cell-based; details: Homo sapiens, RPMI-8226, leukemia; for CC50: read-out: LC50 (the source's name)
# [1] = test system: L929 normal mouse fibroblast cell line; test: Cytotoxicity MTT assay, L929; type: cell-based; details: 50 µM single concentration
# Experimental: (§1) T47D (ATCC HTB-133) was purchased from Biomedia (Thailand) Co., LTD. L929 (ATCC CCL-1) was received as a gift from Prof. Tanapat Palaga, Department of Microbiology, Faculty of Science, Chulalongkorn University, Bangkok, Thailand. The cells were cultured in Dulbecco's Modified Eagle's Medium (DMEM; Gibco) supplemented with 10% fetal bovine serum (FBS; HyClone), 100 U mL^−1 penicillin and 100 µg mL^−1 streptomycin (Gibco) at 37 °C with 5% CO2.
# (§2) The antiproliferative activity was determined by MTT assay. Briefly, the cells were plated into a 96-well microplate at the density of 10 000 cells per well. The cells were allowed to grow overnight before treated with the solutions of compounds in culture medium at the designated concentrations for 48 hours. The medium was then replaced with MTT solution (0.5 mg mL^−1 MTT in culture medium) and incubated for 3 hours. A 100 µL of DMSO was used to dissolve the produced formazan. Absorbance at 570 nm was then measured using a microplate reader (Varioskan™ LUX multimode microplate reader, Thermo Scientific™). Percent viability was calculated relative to the vehicle control (DMSO).
# SK-MEL-2 = test: NCI60 five-dose screen; type: cell-based; details: Homo sapiens, SK-MEL-2, melanoma; for CC50: read-out: LC50 (the source's name)
# CCRF-CEM = test: NCI60 five-dose screen; type: cell-based; details: Homo sapiens, leukemia; for CC50: read-out: LC50 (the source's name)
# TK-10 = test: NCI60 five-dose screen; type: cell-based; details: Homo sapiens, TK-10, renal cancer; for CC50: read-out: LC50 (the source's name)
# CAKI-1 = test: NCI60 five-dose screen; type: cell-based; details: Homo sapiens, CAKI-1, renal cancer; for CC50: read-out: LC50 (the source's name)
# HOP-62 = test: NCI60 five-dose screen; type: cell-based; details: Homo sapiens, HOP-62, NSC lung cancer; for CC50: read-out: LC50 (the source's name)
# MDA-MB-468 = test: NCI60 five-dose screen; type: cell-based; details: Homo sapiens, MDA-MB-468, breast cancer; for CC50: read-out: LC50 (the source's name)
# UO-31 = test: NCI60 five-dose screen; type: cell-based; details: Homo sapiens, UO-31, renal cancer
# A498 = test: NCI60 five-dose screen; type: cell-based; details: Homo sapiens, A498, renal cancer; for CC50: read-out: LC50 (the source's name)
# OVCAR-5 = test: NCI60 five-dose screen; type: cell-based; details: Homo sapiens, OVCAR-5, ovarian cancer; for CC50: read-out: LC50 (the source's name)
# SK-MEL-5 = test: NCI60 five-dose screen; type: cell-based, human; details: Homo sapiens; for CC50: SK-MEL-5, SK-MEL-5, melanoma, read-out: LC50 (the source's name); for GI50: SK-MEL-5, melanoma
# HOP-92 = test: NCI60 five-dose screen; type: cell-based; details: Homo sapiens, HOP-92, NSC lung cancer; for CC50: read-out: LC50 (the source's name)
# SNB-75 = test: NCI60 five-dose screen; type: cell-based; details: Homo sapiens, SNB-75, CNS cancer; for CC50: read-out: LC50 (the source's name)
# PC-3 = test: NCI60 five-dose screen; type: cell-based; details: Homo sapiens, PC-3, prostate cancer; for CC50: read-out: LC50 (the source's name)
# U251 = test: NCI60 five-dose screen; type: cell-based; details: Homo sapiens, U-251, U251, CNS cancer; for CC50: read-out: LC50 (the source's name)
# BT-549 = test: NCI60 five-dose screen; type: cell-based; details: Homo sapiens, BT-549, breast cancer; for CC50: read-out: LC50 (the source's name)
# HT29 = test: NCI60 five-dose screen; type: cell-based; details: Homo sapiens, HT-29, HT29, colon cancer; for CC50: read-out: LC50 (the source's name)
# SK-MEL-28 = test: NCI60 five-dose screen; type: cell-based; details: Homo sapiens, SK-MEL-28, melanoma; for CC50: read-out: LC50 (the source's name)
# HCT-116 = test: NCI60 five-dose screen; type: cell-based; details: Homo sapiens, HCT-116, colon cancer; for CC50: read-out: LC50 (the source's name)
# [2] = test system: T47D breast cancer cell line; test: Cytotoxicity MTT assay, T47D; type: cell-based, human; details: Homo sapiens, T47D; MTT, 48 hours
# Experimental: as §1, §2
# SN12C = test: NCI60 five-dose screen; type: cell-based; details: Homo sapiens, renal cancer; for CC50: read-out: LC50 (the source's name)
smiles,measurement,setting,value
"CCOC(=O)c1ccc(/C=N/NC(=O)c2[nH]c3ccc(Br)cc3c2-c2ccccc2)[nH]1 [Derivative 3i, Ethyl (E)-5-((2-(5-bromo-3-phenyl-1H-indole-2-carbonyl)hydrazono)methyl)-1H-pyrrole-2-carboxylate]",GI50,SF-268,2.68 µM
same,CC50,SF-268,> 100 µM
same,GI50,OVCAR-3,2.63 µM
same,CC50,OVCAR-3,40.7 µM
same,GI50,786-0,4.48 µM
same,CC50,786-0,> 100 µM
same,GI50,IGROV1,2.02 µM
same,GI50,LOX IMVI,2.26 µM
same,CC50,LOX IMVI,35.2 µM
same,GI50,ACHN,1.86 µM
same,CC50,ACHN,73.8 µM
same,GI50,UACC-62,0.614 µM
same,CC50,UACC-62,48.5 µM
same,CC50,COLO 205,36.9 µM
same,GI50,COLO 205,3.15 µM
same,GI50,RPMI-8226,2.28 µM
same,CC50,RPMI-8226,> 100 µM
same,L929 cell survival,[1],> 80%
same,L929 toxicity at single concentration,[1],— ^c (No toxicity observed at 50 µM single concentration (>80% cell survival).)
same,GI50,SK-MEL-2,2.38 µM
same,CC50,SK-MEL-2,55 µM
same,GI50,CCRF-CEM,3.04 µM
same,CC50,CCRF-CEM,> 100 µM
same,GI50,TK-10,6.92 µM
same,CC50,TK-10,> 100 µM
same,GI50,CAKI-1,0.961 µM
same,CC50,CAKI-1,74.2 µM
same,GI50,HOP-62,3.65 µM
same,CC50,HOP-62,> 100 µM
same,GI50,MDA-MB-468,1.63 µM
same,CC50,MDA-MB-468,36.6 µM
same,GI50,UO-31,1.48 µM
same,CC50,UO-31; read-out: LC50 (the source's name),> 100 µM
same,GI50,A498,10.5 µM
same,CC50,A498,55.2 µM
same,GI50,OVCAR-5,3.43 µM
same,CC50,OVCAR-5,38 µM
same,CC50,SK-MEL-5,7.68 µM
same,GI50,SK-MEL-5,1.48 µM
same,GI50,HOP-92,2.33 µM
same,CC50,HOP-92,> 100 µM
same,GI50,SNB-75,0.399 µM
same,CC50,SNB-75,> 100 µM
same,GI50,PC-3,2.28 µM
same,CC50,PC-3,> 100 µM
same,GI50,U251,2.82 µM
same,CC50,U251,39.4 µM
same,GI50,BT-549,3.47 µM
same,CC50,BT-549,> 100 µM
same,GI50,HT29,2.32 µM
same,CC50,HT29,22.9 µM
same,GI50,SK-MEL-28,2.65 µM
same,CC50,SK-MEL-28,94.5 µM
same,GI50,HCT-116,3.24 µM
same,CC50,HCT-116,> 100 µM
same,IC50,[2],11.8 ± 1.4 µM
same,GI50,SN12C,2.86 µM
same,CC50,SN12C,36.2 µM
"Cc1[nH]c(/C=N/NC(=O)c2[nH]c3ccc(Br)cc3c2-c2ccccc2)c(C)c1[N+](=O)[O-] [Derivative 3r, (E)-5-Bromo-N′-((3,5-dimethyl-4-nitro-1H-pyrrol-2-yl)methylene)-3-phenyl-1H-indole-2-carbohydrazide]",GI50,SF-268,2.37 µM
same,CC50,SF-268,33.1 µM
same,GI50,OVCAR-3,1.77 µM
same,CC50,OVCAR-3,10.4 µM
same,GI50,786-0,2.35 µM
same,CC50,786-0,17 µM
same,GI50,IGROV1,3.83 µM
same,GI50,LOX IMVI,1.63 µM
same,CC50,LOX IMVI,5.73 µM
same,GI50,ACHN,3.3 µM
same,CC50,ACHN,33.4 µM
same,GI50,UACC-62,2.9 µM
same,CC50,UACC-62,37.5 µM
same,CC50,COLO 205,7.51 µM
same,GI50,COLO 205,1.9 µM
same,GI50,RPMI-8226,2.7 µM
same,CC50,RPMI-8226,> 100 µM
same,L929 cell survival,[1],> 80%
same,L929 toxicity at single concentration,[1],— ^c (No toxicity observed at 50 µM single concentration (>80% cell survival).)
same,GI50,SK-MEL-2,2.11 µM
same,CC50,SK-MEL-2,22.6 µM
same,GI50,CCRF-CEM,1.89 µM
same,CC50,CCRF-CEM,> 100 µM
same,GI50,TK-10,5.1 µM
same,CC50,TK-10,41.2 µM
same,GI50,CAKI-1,2.29 µM
same,CC50,CAKI-1,33.1 µM
same,GI50,HOP-62,2.09 µM
same,CC50,HOP-62,11.7 µM
same,GI50,MDA-MB-468,1.94 µM
same,CC50,MDA-MB-468,26.1 µM
same,GI50,A498,2.35 µM
same,CC50,A498,27.6 µM
same,GI50,OVCAR-5,3.53 µM
same,CC50,OVCAR-5,41.5 µM
same,CC50,SK-MEL-5,5.87 µM
same,GI50,SK-MEL-5,1.5 µM
same,GI50,HOP-92,2.51 µM
same,CC50,HOP-92,45.8 µM
same,GI50,SNB-75,2.19 µM
same,CC50,SNB-75,21.5 µM
same,GI50,PC-3,2.85 µM
same,CC50,PC-3,45.5 µM
same,GI50,U251,1.85 µM
same,CC50,U251,13.4 µM
same,GI50,BT-549,2.74 µM
same,CC50,BT-549,30.6 µM
same,GI50,HT29,1.84 µM
same,CC50,HT29,6.67 µM
same,GI50,SK-MEL-28,3.56 µM
same,CC50,SK-MEL-28,38.7 µM
same,GI50,HCT-116,1.98 µM
same,CC50,HCT-116,10.4 µM
same,IC50,[2],12.3 ± 0.3 µM
same,GI50,SN12C,1.74 µM
same,CC50,SN12C,6.73 µM

# Reference: article PMC12203311, “Design, synthesis, in silico and in vitro evaluation of pyrrole–indole hybrids as dual tubulin and aromatase inhibitors with potent anticancer activities” (RSC Advances, 2025)
